What was measured:
[1] = system: virus de la vaccine; set-up: species or system lapin; conditions: in vivo
[2] = system: Cellules primaires de reins de singe; experiment: cell culture cytotoxicity, normal cells; type: cell-based
Procedure: Des cultures de cellules saines (cellules primaires de reins de singe, cellules de lignée "Vero" et "SIRC") et des cultures de cellules cancéreuses (cellules K.B., cellules Hela, cellules Hep II et cellules L)ont reçu une dose de 200 Mg, soit de serpentine, soit d'alstonine, soit de sempervirine, par ml de culture.
(§1) L'effet cytotoxique spécifique, vis-à-vis des cellules tumorales utilisées, ne s'est jamais démenti au cours des très nombreuses expériences effectuées. Par contre, pour effectuer les cellules saines il a fallu des quantités d'alcaloides au moins dix fois plus grandes (plus de 2 mg/ml). (Les cultures de cellules in-vitro sans mycoplàsmes ont été effectuées dans les conditions classiques et en l'absence d'antibiotique qui pourraient fausser les résultats).
(§2) Les cellules cancéreuses et saines utilisées ne contenaient pas de mycoplasmes et le milieu de culture ne contenait pas d'antibiotique, ces derniers pouvant sensibiliser les cellules et par conséquent fausser les résultats.

[3] = system: Cellules Hela; experiment: cell culture cytotoxicity, cancer cells; type: cell-based; conditions: 150 µg dès l'ensemencement (per ml of culture); culture de 3 jours
Procedure: as §1, §2

[4] = system: Cellules K.B.; experiment: cell culture cytotoxicity, cancer cells; type: cell-based
Procedure: as §1, §2

[5] = system: Cellules L; experiment: cell culture cytotoxicity, cancer cells; type: cell-based; conditions: 150 µg dès l'ensemencement (per ml of culture)
Procedure: as §1, §2

[6] = system: lymphome YC 8; experiment: lymphoma YC 8 of the mouse, flavopéreirine; type: in vivo, souris BALB c; conditions: for survie (surviving mice/total): i.p. 2 x 150 µg per day, 10 days from 24 h after inoculation
Source text: En ce qui concerne l'activité de la flavopéreirine vis-à-vis du lumphome YC 8 de la souris, 30 souris BALB c de 19-20 g ont été inoculées par voie intrapéritonéale par 10^4 cellules ascitiques du lymphome YC 8 fraîchement prélevées et en pleine division chez la souris.
Dix souris ont été gardées comme témoins et 20 souris ont été traitées 24 heures après inoculation.
La flavopéreirine est dissoute en milieu physiologique tamponné (pH 7,65) et deux injections par voie intrapéritonéale et par jour sont administrées, (2 x 150 µg de flavopéreirine) et ceci pendant 10 jours consécutifs.

[7] = system: ascite d'Ehrlich; experiment: Ehrlich ascites tumour in the mouse, flavopéreirine; type: in vivo, souris SWISS; conditions: for survie (surviving mice/total): i.p. 2 x 150 µg per day, 10 days from 24 h after inoculation
Procedure: En ce qui concerne l'activité de la flavopéreirine, vis-à-vis des tumeurs ascites d'Ehrlich de la souris, 30 souris SWISS de 20- 22 g ont été inoculées par voie intrapérito néale par 5 x 10^3 cellules ascite d'Ehrlich fraîchement prélevées.
Dix souris ont été gardées témoins et 20 souris ont été traitées 24 heures après l'inoculation par la flavopéreirine à raison de deux fois par jours (2 x 150 µg) par voie intrapéritonéale et pendant 10 jours consécutifs.
Les résultats du tableau VIII ci-après illustrent la survie des animaux pendant trois mois (une survie de plusieurs jours n'est pas prise en considération).

[8] = system: cellules cancéreuses; experiment: cell culture cytotoxicity, cancer cells as a group; type: cell-based; conditions: 150 µg par ml de culture
Procedure: as §1, §2

[9] = system: Cellules "Vero" (cellules de lignée); experiment: cell culture cytotoxicity, normal cells; type: cell-based; conditions: 150 µg dès l'ensemencement (per ml of culture)
Procedure: as §1, §2

[10] = system: cellules saines; experiment: cell culture cytotoxicity, healthy cells as a group; type: cell-based; conditions: 150 µg par ml de culture
Procedure: as §1, §2

[11] = system: virus de la grippe; type: in vivo, souris SWISS; conditions: doses comparables
[12] = 150 µg dès l'ensemencement (per ml of culture)

CCc1ccc2c3[nH]c4ccccc4c3cc[n+]2c1 [flavopéreirine]
appearance of papules [1]: empêche l'apparition et le développement des papules virales
destruction des cellules [2, 12]: - Pas de destruc-tion pendant 7 jours
destruction des cellules ([2]; 200 µg/ml, en culture de 7 jours dès l'ensemencement): Pas de destruction pendant 8 jours
destruction des cellules [3]: - Destruction to-tale en 24-48 heures
destruction des cellules [4, 12]: - Destruction to-tale en 24-48 heures
destruction des cellules ([4]; 200 µg/ml, en culture de 3 jours dès l'ensemencement): Destruction totale en 24-48 heures
destruction des cellules [5]: - Destruction to-tale en 24-48 heures.
survie (surviving mice/total) ([6]; day 0): 20/20
survie (surviving mice/total) ([6]; day 21): 20/20
survie (surviving mice/total) ([6]; day 60): 17/20
survie (surviving mice/total) ([6]; day 90): 17/20
state of the surviving mice ([6]; voie I.P., more than three months of observation): développement étant tout à fait normal
survie de trois mois, share of treated mice ([6]; voie sous-cutanée, 2 x 150 µg per day, 10 days): 70-80%
survie (surviving mice/total) ([7]; day 0): 20/20
survie (surviving mice/total) ([7]; day 24): 17/20
survie (surviving mice/total) ([7]; day 60): 11/20
survie (surviving mice/total) ([7]; day 90): 11/20
guérison (in words) ([7]; flavopéreirine alone, three months of observation, same results in souris BALB c): permet la guérison d'un important pourcentage de souris
destruction des cellules cancéreuses [8]: détruites en 24-48 heures
destruction des cellules [9]: - Pas de destruc-tion pendant 7 jours
destruction des cellules saines [10]: ne sont pas détruites pendant les 7 jours d'observation
activity against influenza compared with sempervirine [11]: résultats tout à fait comparables
